Usually melting point stands for the temperature, or range, at which the solid turns liquid.

`CCCOC(=O)OC1=C(c2cc(C)ccc2C)C(=O)NC12CCN(OC)CC2` [Compound P2] had a melting point of 133 to 136 °C.

Consider `CON1CCC2(CC1)NC(=O)C(c1cc(Br)c(C)cc1C)=C2OC(=O)C(C)(C)C` [Compound P52], for which the melting point fell in the range of 225 to 226 °C.

`COC1=C(c2cc(C)ccc2C)C(=O)NC12CCN(OC)CC2` [Compound P11]: the melting point was in the range of 203 to 205 °C.

In the case of `CON1CCC2(CC1)NC(=O)C(c1cc(C)ccc1C)=C2OC(=O)OC(C)C` [Compound P3], the melting point lay in the range of 207 to 209 °C.

`C=COC(=O)OC1=C(c2cc(C)ccc2C)C(=O)NC12CCN(OC)CC2` [Compound P6] showed a melting point of 162 to 164 °C.

On to `CON1CCC2(CC1)NC(=O)C(c1cc(-c3ccc(Cl)cc3)c(C)cc1C)=C2OC(=O)C(C)(C)C` [Compound P54], for which the melting point lay within 229 to 230 °C.

With `CON1CCC2(CC1)NC(=O)C(c1ccc(C3CC3)cc1Cl)=C2OC(=O)C(C)(C)C` [Compound P59], the melting point lay within 195 to 197 °C.

`CCOC(=O)OC1=C(c2c(C)cc(C3CC3)cc2C)C(=O)NC12CCN(OC)CC2` [Compound P50]: the melting point was 215 to 216 °C.

In the case of `C=CCOC(=O)OC1=C(c2cc(C)ccc2C)C(=O)NC12CCN(OC)CC2` [Compound P4], the melting point lay within 140 to 142 °C.

Molecule `CCN(CC)C(=O)OC1=C(c2cc(C)ccc2C)C(=O)NC12CCN(OC)CC2` [Compound P10] registered a melting point of 129 to 131 °C.

Molecule `C=CCOC(=O)OC1=C(c2cc(Br)ccc2C)C(=O)NC12CCN(OC)CC2` [Compound P45] had a melting point of 157 to 158 °C.

`CCOC(=O)OC1=C(c2cc(C)ccc2C)C(=O)NC12CCN(OC)CC2` [Compound P1]: the melting point was 170 to 173 °C.

Molecule `CON1CCC2(CC1)NC(=O)C(c1cc(C)ccc1C)=C2OCC#N` [Compound P35] had a melting point of 104 to 106 °C.

Molecule `CON1CCC2(CC1)NC(=O)C(c1cc(C)ccc1C)=C2OC(=O)C(C)(C)C` [Compound P9] showed a melting point of 158 to 159 °C.

For the molecule `CON1CCC2(CC1)NC(=O)C(c1c(C)cc(C3CC3)cc1C)=C2OC(=O)C(C)(C)C` [Compound P57], the melting point is greater than 200 °C.

The molecule `CCOC(=O)OC1=C(c2ccc(Cl)c(Cl)c2)C(=O)NC12CCN(OC)CC2` [Compound P30] yielded a melting point of 222 to 224 °C.

Take `COc1ccc(OC)c(C2=C(OC(=O)N(C)CCC#N)C3(CCN(OC)CC3)NC2=O)c1` [Compound P42]: the melting point fell in the range of 187 to 189 °C.

`CCC(=O)OC1=C(c2cc(C)ccc2C)C(=O)NC12CCN(OC)CC2` [Compound P20] came in with a melting point of 202 to 204 °C.

`CON1CCC2(CC1)NC(=O)C(c1c(C)cc(C)c(Cl)c1C)C2=O` (stereo not shown) [Compound T20]: the melting point was greater than 200 °C.

In turn, `COc1ccc(OC)c(C2C(=O)NC3(CCN(OC)CC3)C2=O)c1` (stereo not shown) [Compound T11] registered a melting point of 194 to 196 °C.

`C=CCOC(=O)OC1=C(c2ccc(Cl)c(Cl)c2)C(=O)NC12CCN(OC)CC2` [Compound P46] returned a melting point of 210 to 213 °C.

Molecule `CCOC(=O)OC1=C(c2ccc(C3CC3)cc2Cl)C(=O)NC12CCN(OC)CC2` [Compound P58] returned a melting point of 190 to 192 °C.

Molecule `COCCOC1=C(c2cc(C)ccc2C)C(=O)NC12CCN(OC)CC2` [Compound P73] yielded a melting point of 161 to 164 °C.

`CCOC(=O)OC1=C(c2cc(OC)ccc2OC)C(=O)NC12CCN(OC)CC2` [Compound P31] gave a melting point of 192 to 193 °C.

For `CON1CCC2(CC1)NC(=O)C(c1ccc(Cl)c(Cl)c1)C2=O` (stereo not shown) [Compound T10], the melting point is 239 to 242 °C.

For the molecule `CCON1CCC2(CC1)NC(=O)C(c1ccc(Cl)cc1Cl)C2=O` (stereo not shown) [Compound T6], the melting point lay within 244 to 245 °C.

Regarding `C=CCOC(=O)OC1=C(c2cc(OC)ccc2OC)C(=O)NC12CCN(OC)CC2` [Compound P47], the melting point lay within 156 to 157 °C.

`CON1CCC2(CC1)NC(=O)C(c1ccc(C3CC3)cc1C)=C2OC(=O)C(C)(C)C` [Compound P61]: the melting point lay in the range of 244 to 245 °C.

On to `CON1CCC2(CC1)NC(=O)C(c1cc(-c3ccc(F)cc3)c(F)cc1C)=C2OC(=O)C(C)(C)C` [Compound P72], for which the melting point fell in the range of 101 to 104 °C.

Molecule `CON1CCC2(CC1)NC(=O)C(c1cc(C)ccc1C)=C2OC(C)=O` [Compound P19] registered a melting point of 233 to 236 °C.

As for `COCOC1=C(c2cc(C)ccc2C)C(=O)NC12CCN(OC)CC2` [Compound P12], the melting point lay in the range of 183 to 185 °C.

In turn, `CCOC(=O)OC1=C(c2ccc(C3CC3)cc2C)C(=O)NC12CCN(OC)CC2` [Compound P60] had a melting point of 193 to 195 °C.

The molecule `CON1CCC2(CC1)NC(=O)C(c1cc(Br)c(F)cc1C)=C2OC(=O)C(C)(C)C` [Compound P63] had a melting point of 216 to 217 °C.

The molecule `CCOC(=O)OC1=C(c2cc(Br)ccc2C)C(=O)NC12CCN(OC)CC2` [Compound P27] had a melting point of 205 to 209 °C.

Turning to `CON1CCC2(CC1)NC(=O)C(c1c(Cl)cccc1Cl)=C2OC(=O)N(C)CCC#N` [Compound P33], the melting point fell in the range of 239 to 242 °C.

The molecule `CCOC(=O)OC1=C(c2cc(Br)c(C)cc2C)C(=O)NC12CCN(OC)CC2` [Compound P51] returned a melting point of 206 to 209 °C.

Turning to `CCOC(=O)OC1=C(c2cc(C)ccc2C)C(=O)NC12CCN(OCC)CC2` [Compound P21], the melting point is 167 to 168 °C.

`CCON1CCC2(CC1)NC(=O)C(c1cc(C)ccc1C)C2=O` (stereo not shown) [Compound T7] yielded a melting point of 166 to 167 °C.

Take `C#CCOC(=O)OC1=C(c2cc(C)ccc2C)C(=O)NC12CCN(OC)CC2` [Compound P8]: the melting point fell in the range of 151 to 153 °C.

Turning to `C#CCOC1=C(c2cc(C)ccc2C)C(=O)NC12CCN(OC)CC2` [Compound P38], the melting point lay in the range of 184 to 185 °C.

Turning to `CON1CCC2(CC1)NC(=O)C(c1cc(Br)c(F)cc1C)=C2O` [Compound T19, 3-(5-bromo-4-fluoro-2-methyl-phenyl)-4-hydroxy-8-methoxy-1,8-diaza-spiro[4.5]dec-3-en-2-one], the melting point fell in the range of 229 to 230 °C.

`CON1CCC2(CC1)NC(=O)C(c1cc(C)ccc1C)=C2OS(=O)(=O)C(C)C` [Compound P13] gave a melting point of 168 to 170 °C.

For `CON1CCC2(CC1)NC(=O)C(c1cc(Br)ccc1C)C2=O` (stereo not shown) [Compound T8], the melting point lay within 194 to 196 °C.

`CON1CCC2(CC1)NC(=O)C(c1c(C)cc(C)cc1C)=C2OC(=O)N(C)CCC#N` [Compound P40] showed a melting point of 220 to 224 °C.

`CCON1CCC2(CC1)NC(=O)C(c1cc(C)ccc1C)=C2OC(=O)C(C)(C)C` [Compound P24] showed a melting point of 169 to 170 °C.

`CCOC(=O)OC1=C(c2c(Cl)cccc2Cl)C(=O)NC12CCN(OC)CC2` [Compound P17] returned a melting point of 229 to 232 °C.

With `CON1CCC2(CC1)NC(=O)C(c1ccc(C3CC3)cc1Cl)C2=O` (stereo not shown) [Compound T17], the melting point was 206 to 207 °C.

Regarding `CCON1CCC2(CC1)NC(=O)C(c1ccc(Cl)cc1Cl)=C2OC(=O)C(C)(C)C` [Compound P26], the melting point lay within 165 to 166 °C.

The molecule `CON1CCC2(CC1)NC(=O)C(c1cc(C)ccc1C)=C2OC(=O)OCC(C)(C)C` [Compound P7] displayed a melting point of 196 to 197 °C.

For the origin of these results see patent publication US8722578B2, “Spiroheterocyclic pyrrolidinedione herbicidal compositions” (Syngenta Participations AG, priority 2008, dated 2014).
